Source: patent publication US20150238460A1, “Methods and Compositions For Treating Hepatocellular Carcinoma” (priority 2012, published 2015)
Read-outs that look alike come from different tables or passages of the source.

Columns and labels:
[1] = system: advanced, unresectable HCC (various cancers in whole group); assay: Phase I trial G-202-001, expansion group with modified dosing regimen; assay type: in vivo, human; conditions: fifth HCC patient
From the text: Virtually all anti-cancer agents have the potential to cause infusion reactions, which are reactions that may be allergic or non-allergic in nature and not related to the known toxicity profile of the agent. Infusion reactions are usually thought of as hypersensitivity reactions, despite the absence of an allergic component in many cases.
Endpoints evaluated in the expansion group included safety, tumor response rate, progression-free survival, and overall survival. Additional secondary endpoints included exploration of pharmacodynamic markers associated with various cancers. Assessments were routinely performed during therapy and following therapy if toxicity was the reason therapy was discontinued.
The only FDA-approved therapy for patients with unresectable HCC is sorafenib tosylate, otherwise known as Nexavar® and/or by the chemical name: 4-(4-{3-[4-Chloro-3-(trifluoromethyl)phenyl]ureido}phenoxy)N2methylpyridine-2-carboxamide 4-methylbenzenesulfonate.

[2] = system: progressive advanced hepatocellular carcinoma (HCC); conditions: two of four patients, no improvement on therapy
[3] = system: Sarcoplasmic/Endoplasmic Reticulum Calcium ATPase (SERCA) pump; conditions: cited from earlier work
[4] = system: advanced hepatocellular carcinoma; conditions: Asian-Pacific trial, advanced HCC; cited from earlier work
[5] = system: advanced hepatocellular carcinoma; conditions: cited from earlier work

Question: For “8-O-(12-aminododecanoyl)-debutanoyl-thapsigargin aspartate-glutamate-γ-glutamate-γ-glutamate-γ-glutamate OH [G-202]”, which “time without disease progression after ceasing treatment” value [1] is on record?
Answer: more than four

Question: What about the “disease progression reached after number of cycles” value [2] of the same compound?
Answer: no more than two

Question: For `C/C=C(/C)C(=O)O[C@H]1C(C)=C2[C@H]([C@@H]1OC(=O)CCCCCCC)[C@@](C)(OC(C)=O)C[C@H](OC(=O)CCC)[C@@]1(O)[C@H]2OC(=O)[C@@]1(C)O` [Thapsigargin], which “affinity of binding to SERCA pump” value [3] is on record?
Answer: high affinity

Question: With `CNC(=O)c1cc(Oc2ccc(NC(=O)Nc3ccc(Cl)c(C(F)(F)F)c3)cc2)ccn1.Cc1ccc(S(=O)(=O)O)cc1` [sorafenib, 4-(4-{3-[4-Chloro-3-(trifluoromethyl)phenyl]ureido}phenoxy)N2methylpyridine-2-carboxamide 4-methylbenzenesulfonate] as the compound, how does the median overall survival [4] read?
Answer: 6.5 months

Question: What about the “time to radiologic progression” value [4] of the same compound?
Answer: 2.8 months

Question: And the “disease progression on prior sorafenib treatment after” value ([1]; before G-202)?
Answer: 3 months

Question: And the “time to radiologic progression” value ([5]; SHARP Trial, patients with advanced HCC, no prior systemic treatment)?
Answer: 5.5 months

Question: What about the overall survival ([5]; SHARP Trial, patients with advanced HCC) of the same compound?
Answer: 10.7 months

Question: What about the “average time to disease progression after beginning sorafenib treatment” value ([5]; clinical trial of 602 patients with HCC (Llovet 2008)) of the same compound?
Answer: approximately six
